Data from patent publication US6395745B1, “Alkaloid halide salts of swainsonine and methods of use” (priority 1997, dated 2002).

Tests used:
STAT3 = STAT3 level in mice (Western blot); format: in vivo, DBA/2 mice; details: 20 μg/day ip, spleen
Experimental: To measure the level and activation of STATs, DBA/2 mice are treated for 6-9 days with 20 μg/mouse/day of swainsonine hydrochloride followed by a single intraperitoneal (i.p) injection of either sterile saline or 100 μg of poly IC (i.e., dsRNA, a surrogate for virus) in sterile saline. Two hours later an optimal time for STAT activation, spleens of the mice are homogenized and cytosolic and nuclear cell extracts are prepared. STAT protein levels are measured in the cytosolic and nuclear fractions by Western blot analysis. STAT phosphorylation (i.e. activation) is measured following immunoprecipitation using anti-phosphotyrosine antibodies.

[1] = tested on: early erythroid progenitor cells (CFU-E); assay: Murine bone marrow progenitor cell assay in methylcellulose, CFU-E; format: cell-based, C57BL/6 mice
Experimental: Pathogen-free C57BL/6 female mice, 8-9 weeks old, obtained from Jackson Laboratories were used. The room environment and photoperiod were controlled: 24° C.; humidity, 50±20%; 12 hr light and 12 hr dark. Mice were housed one per cage with ad libitum accesses to standard pelleted commercial laboratory diet and to sterile (autoclaved) tap water.
Swainsonine hydrochloride was manufactured by Seres Laboratories, Calif. FBS and methylcellulose (MethoCult M3330) were purchased from Stem Cell Technologies, Inc. (Vancouver. BC). Iscove's modified Dulbecco's medium was prepared using powdered media from Gibco BRL, deionized water and filter sterilization. For the handling of cells, the media was supplemented with 2% FBS and 50 μM β-mercaptoethanol (referred to as IMDM/FBS).
The healthy and GD0039 treated mice were euthanized by CO2 asphyxiation. Bone marrow (BM) cell suspensions were prepared under sterile conditions by flushing both femurs and tibiae with IMDM/FBS using a 26 gauge needle. Single cell suspensions were made up to 10.0 ml IMDM/FBS. The concentration of nucleated cells in each suspension was determined by triplicate counts on a hemocytometer. A portion of the cells was further diluted in media to the appropriate concentration before plating for the progenitor assay.
Colony-forming units (CFUs) were estimated by the methylcellulose method. One milliliter suspensions, containing 2×10^5 nucleated BM cells, in 0.1 ml of IMDM and 0.9 ml MethoCult (M3330), were plated in triplicate in 35 mm tissue culture dishes. […] The MethoCult M3330 contains 30% FBS and 10 μg/ml erythropoietin and is designed for the growth of early erythroid progenitor cells (CFU-E), which were scored after 3 days of incubation at 37° C. in a humidified atmosphere containing 5% CO2. […] Colonies containing more than 20 cells were scored using an inverted microscope with brightfield optics and 40× or 100× magnification.

[2] = Toxicology studies (acute and chronic); format: in vivo
Experimental: Pharmacological and toxicological studies were conducted with swainsonine hydrochloride. In particular, the following were investigated: (a) pharmacokinetics of the compound in rats and monkeys; (b) acute toxicity at significant multiples of the intended human dose; (c) the toxicity profile of the compound was compared to the literature profile for swainsonine free base; (d) potential for genotoxicity; (e) time course, dose-dependence, tissue sensitivity and reversibility of oligosaccharide accumulation in tissue; and (f) serum AST and relationship to liver histology.

Cl.O[C@H]1[C@H]2[C@H](O)CCCN2C[C@@H]1O [swainsonine hydrochloride, (−)-(1S,2S,8R,8aR)-1,2,8-trihydroxyoctahydro-indolizidine hydrochloride salt]
STAT3 cytosolic protein levels (STAT3): remained unchanged
increase in the number of early CFU-E ([1]; 0.03 μg/ml to 10 μg/ml in vitro): ~3 fold
number of early CFU-E, counted on day 3 ([1]; added to methylcellulose in vitro): significantly increased
mean CFU-E of triplicate counts ± SD from 2 × 10^5 nucleated BM cells ([1]; mouse 1 (control), 0.3 μg/ml in vitro, in vitro control 54 ± 12): 75 ± 16
mean CFU-E of triplicate counts ± SD from 2 × 10^5 nucleated BM cells ([1]; mouse 1 (control), 3 μg/ml in vitro, in vitro control 54 ± 12): 87 ± 16
mean CFU-E of triplicate counts ± SD from 2 × 10^5 nucleated BM cells ([1]; mouse 2 (GD0039 treated in vivo, 20 μg/day for four days), 0.3 μg/ml in vitro): 97 ± 4
mean CFU-E of triplicate counts ± SD from 2 × 10^5 nucleated BM cells ([1]; mouse 2 (GD0039 treated in vivo, 20 μg/day for four days), 3 μg/ml in vitro): 127 ± 18
mean CFU-E of triplicate counts ± SD from 2 × 10^5 nucleated BM cells ([1]; mouse 2 (GD0039 treated in vivo, 20 μg/day for four days), no treatment in vitro): 22 ± 5
dose at which acute toxicity occurs ([2]; acute toxicity): 13,000 times the intended human dose
sites of oligomannoside accumulation in lysosomes ([2]; chronic studies, doses proposed for humans): thyroid and also possibly the kidney could be the sites of reversible accumulation
